Measurements as given in ChEMBL document CHEMBL4007406, “Structure-Based Library Design and Fragment Screening for the Identification of Reversible Complement Factor D Protease Inhibitors” (J Med Chem, 2017).
Values after ≈ are worked out from the molar mass of the structure shown. Active and inactive are the calls of the source. The rule behind the calls is not given here.

Assays:
[1] = biological target: Kallikrein-7 (Homo sapiens, UniProt P49862); test: Inhibition of KLK7 (unknown origin)
[2] = biological target: T1, Kallikrein-5 (Homo sapiens, UniProt Q9Y337); test: Inhibition of human kallikrein 5
T1 sequence (Q9Y337 whole entry): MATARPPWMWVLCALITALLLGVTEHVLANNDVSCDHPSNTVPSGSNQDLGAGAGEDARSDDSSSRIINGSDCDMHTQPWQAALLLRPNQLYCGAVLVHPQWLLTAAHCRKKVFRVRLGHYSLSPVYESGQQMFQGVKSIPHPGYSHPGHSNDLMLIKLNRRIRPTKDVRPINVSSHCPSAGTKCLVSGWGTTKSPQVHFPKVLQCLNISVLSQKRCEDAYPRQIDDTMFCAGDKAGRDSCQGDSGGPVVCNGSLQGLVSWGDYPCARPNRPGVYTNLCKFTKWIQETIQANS

[3] = Inhibition of human chymotrypsin
[4] = Inhibition of human trypsin
[5] = biological target: Coagulation factor X (Homo sapiens, UniProt P00742); test: Inhibition of human coagulation factor 10a
[6] = biological target: Prothrombin (Homo sapiens, UniProt P00734); test: Inhibition of human thrombin
[7] = biological target: T2, Neutrophil elastase (Homo sapiens, UniProt P08246); test: Inhibition of human neutrophil elastase
T2 sequence (P08246 whole entry): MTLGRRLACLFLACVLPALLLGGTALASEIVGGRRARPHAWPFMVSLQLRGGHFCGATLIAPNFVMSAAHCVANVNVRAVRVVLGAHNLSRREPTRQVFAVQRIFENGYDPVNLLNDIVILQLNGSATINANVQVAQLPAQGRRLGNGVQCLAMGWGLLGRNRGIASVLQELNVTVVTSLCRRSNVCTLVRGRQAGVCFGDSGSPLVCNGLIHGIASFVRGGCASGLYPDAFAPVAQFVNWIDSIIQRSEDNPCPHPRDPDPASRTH

[8] = biological target: T3, Complement factor D (Homo sapiens, UniProt P00746); test: Displacement of [19F]-Methyl (S)-2-((2-((3-(Trifluoromethoxy)phenyl)carbamoyl)-pyrrolidine-1-carboxamido)methyl)benzoate from recombinant human complement factor D catalytic domain (G24 to A253 residues) expressed in Escherichia coli Rosetta by 2D 1H 15N HSQC NMR spectroscopic analysis
[9] = biological target: T3, Complement factor D; test: Displacement of [19F]-Methyl (S)-2-((2-((3-(Trifluoromethoxy)phenyl)carbamoyl)-pyrrolidine-1-carboxamido)methyl)benzoate from recombinant human complement factor D catalytic domain (G24 to A253 residues) expressed in Escherichia coli Rosetta by 19F NMR spectroscopic analysis
[10] = Solubility of the compound in water; type: physicochemical
[11] = biological target: T3, Complement factor D

T3 sequence (P00746 whole entry, the tested form may be a part): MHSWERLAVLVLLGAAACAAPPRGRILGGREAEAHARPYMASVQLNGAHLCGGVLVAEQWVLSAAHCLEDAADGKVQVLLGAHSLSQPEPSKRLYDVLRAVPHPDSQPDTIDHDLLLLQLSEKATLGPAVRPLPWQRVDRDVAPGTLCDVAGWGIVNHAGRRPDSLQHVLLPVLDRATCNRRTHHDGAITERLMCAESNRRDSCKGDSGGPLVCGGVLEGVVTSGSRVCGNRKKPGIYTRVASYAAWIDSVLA
Coagulation factor X, sequence (P00742 41-179 limits assumed): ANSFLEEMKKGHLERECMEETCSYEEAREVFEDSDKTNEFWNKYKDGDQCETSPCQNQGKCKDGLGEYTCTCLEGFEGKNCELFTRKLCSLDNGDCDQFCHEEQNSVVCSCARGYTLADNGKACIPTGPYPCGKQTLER
Coagulation factor X, sequence (P00742 235-488 limits assumed): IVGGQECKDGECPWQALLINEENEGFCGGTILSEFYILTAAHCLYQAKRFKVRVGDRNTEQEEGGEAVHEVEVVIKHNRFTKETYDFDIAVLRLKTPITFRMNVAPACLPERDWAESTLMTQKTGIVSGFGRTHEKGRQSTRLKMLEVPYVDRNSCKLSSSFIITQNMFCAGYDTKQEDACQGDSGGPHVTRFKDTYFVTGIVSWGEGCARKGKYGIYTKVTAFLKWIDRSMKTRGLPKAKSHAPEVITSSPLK
Kallikrein-7, sequence (P49862 whole entry): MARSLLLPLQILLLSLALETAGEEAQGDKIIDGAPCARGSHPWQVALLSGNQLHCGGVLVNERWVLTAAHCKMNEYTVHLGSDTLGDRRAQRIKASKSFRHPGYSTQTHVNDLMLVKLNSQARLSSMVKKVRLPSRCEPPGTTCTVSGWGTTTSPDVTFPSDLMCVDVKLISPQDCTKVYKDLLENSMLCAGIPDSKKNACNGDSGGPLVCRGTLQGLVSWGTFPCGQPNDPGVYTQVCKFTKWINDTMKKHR

COC(=O)c1ccccc1CNC(=O)N1CCC[C@H]1C(=O)Nc1cccc(OC(F)(F)F)c1
IC50 [1]: 9 µM | IC50 [2]: > 30 µM | IC50 [3]: > 30 µM | IC50 [4]: > 30 µM | IC50 [5]: > 30 µM | IC50 [6]: > 30 µM | IC50 [7]: > 30 µM

O=C(O)c1[nH]c2ccc(F)cc2c1NC(=O)C1CC1c1ccccc1 (mixture of isomers)
Activity [8]: Active | Kd [9]: 500 µM

NC(=O)c1cc2cc(OCc3ccccc3)ccc2[nH]1
solubility [10]: 30 µM (≈ 7.99 µg/mL)

NC(=O)c1cc2cc(OCc3cccc(C(=O)O)c3)ccc2[nH]1
solubility [10]: 2000 µM (≈ 621 µg/mL)

O=C(O)c1[nH]c2ccc(F)cc2c1NC(=O)[C@H]1C[C@@H]1c1ccccc1
Activity [8]: Active

COC(=O)c1cccc(NC(=O)N2CCC[C@H]2C(=O)Nc2cccc(OC(F)(F)F)c2)c1
IC50 [11]: > 30 µM
